Assay [1] deals with wild oat (Avena fatua L.). As to the kind of experiment: Test Example 16: pot test, soil treatment of wild oat, 28th day. Type of assay: in vivo.
The test system of assay [2] is velvetleaf (Abutilon theophrasti Medic.). Description: Test Example 8: pot test, soil treatment of velvetleaf. Type of assay: in vivo. To be noted: 28th day after treatment, read-out: Growth inhibition rate (%) of velvetleaf, Measured value.
Assay [3] deals with shattercane (Sorghum bicolor (L.) Moench). Description: Test Example 20: pot test, soil treatment of shattercane. Type of assay: in vivo. The following applies: 14th day after treatment, read-out: Growth inhibition rate (%) of shattercane, Measured value.
The test system of assay [4] is wild oat (Avena fatua L.). As to the kind of experiment: Test Example 5: pot test, soil treatment of wild oat, 13th day. Type of assay: in vivo. To be noted: soil treatment one day after sowing, 13th day after treatment; for inhibition at 25 g/ha / inhibition at 50 g/ha: Avena fatua, 24 h, read-out: Growth inhibition rate (%) of wild oat, Measured value.
The test system of assay [5] is rostrate sesbania (Sesbania rostrata Bremek. & Oberm.). As to the kind of experiment: Test Example 14: pot test, soil treatment of rostrate sesbania, 14th day. The following applies: 14th day after treatment. Type of assay: in vivo.
The test system of assay [6] is sunn-hemp (Crotalaria juncea L.). Description: Test Example 15: pot test, soil treatment of sunn-hemp. It counts as in vivo. To be noted: 28th day after treatment.
The subject of assay [7] is black nightshade (Solanum nigrum L.). As to the kind of experiment: Test Example 9: pot test, soil treatment of black nightshade. Type of assay: in vivo. To be noted: 28th day after treatment, read-out: Growth inhibition rate (%) of black nightshade, Measured value.
Assay [8] relates to wild oat (Avena fatua L.). As to the kind of experiment: Test Example 17: pot test, soil treatment of wild oat, 14th day. It counts as in vivo. The following applies: 14th day after treatment, read-out: Growth inhibition rate (%) of wild oat, Measured value.
In assay [9] the test system is bermudagrass (Cynodon dactylon (L.) Pers.). As to the kind of experiment: Test Example 10: pot test, foliar treatment of bermudagrass, 2.2 to 2.5 leaf-stage. The following applies: read-out: Growth inhibition rate (%) of bermudagrass, Measured value. Type of assay: in vivo.
Assay [10] relates to rostrate sesbania (Sesbania rostrata Bremek. & Oberm.). Description: Test Example 6: pot test, soil treatment of rostrate sesbania, 28th day. It counts as in vivo. The following applies: 28th day after treatment.
The test system of assay [11] is black nightshade (Solanum nigrum L.). As to the kind of experiment: Test Example 2: pot test, foliar treatment of black nightshade. It counts as in vivo.
For assay [12], the system named is persian speedwell (Veronica persica Poir.). As to the kind of experiment: Test Example 1: pot test, foliar treatment of persian speedwell. The following applies: read-out: Growth inhibition rate (%) of persian speedwell, Measured value. It counts as in vivo.
Assay [13] concerns sunn-hemp (Crotalaria juncea L.). As to the kind of experiment: Test Example 7: pot test, soil treatment of sunn-hemp. Type of assay: in vivo.
The test system of assay [14] is japanese millet (Echinochloa esculenta (A. Braun) H. Scholz.). Description: Test Example 13: pot test, soil treatment of japanese millet. It counts as in vivo.
For another assay, the system named is corn (Zea mays L.). As to the kind of experiment: Test Example 18: pot test, soil treatment of corn. Type of assay: in vivo. The following applies: 14th day after treatment, read-out: Growth inhibition rate (%) of corn, Measured value.
Assay [15] relates to ivy-leaved morningglory (Ipomoea hederacea Jacq.). Description: Test Example 19: pot test, soil treatment of ivy-leaved morningglory. To be noted: 14th day after treatment, read-out: Growth inhibition rate (%) of ivy-leaved morningglory, Measured value. It counts as in vivo.
The test system of assay [16] is sticky chickweed (Cerastium glomeratum Thuill.). Description: Test Example 3: pot test, foliar treatment of sticky chickweed. It counts as in vivo. To be noted: read-out: Growth inhibition rate (%) of sticky chickweed, Measured value.
The test system of assay [17] is common lambsquarters (Chenopodium album L.). Description: Test Example 4: pot test, foliar treatment of common lambsquarters. To be noted: read-out: Growth inhibition rate (%) of lambsquarters, Measured value.
The test system of assay [18] is persian speedwell (Veronica persica Poir.). As to the kind of experiment: Test Example 12: pot test, foliar treatment of persian speedwell, 4.0 to 4.3 leaf-stage. It counts as in vivo. To be noted: read-out: Growth inhibition rate (%) of persian speedwell, Measured value.
Assay [19] relates to bermudagrass (Cynodon dactylon (L.) Pers.). As to the kind of experiment: Test Example 11: pot test, foliar treatment of bermudagrass, 3.8 to 4.3 leaf-stage. The following applies: read-out: Growth inhibition rate (%) of bermudagrass, Measured value. Type of assay: in vivo.
[20] abbreviates: dose 50 g/ha, 2.2 to 2.5 leaf-stage, 28th day after treatment.
[21] abbreviates: Crotalaria juncea, soil, read-out: Growth inhibition rate (%) of sunn-hemp, Measured value.

Where two headings read alike, the source gives them in different places. Bounds are passed on as bounds.

By inhibition is commonly meant the change of the read-out against control, counted positive when it falls.

Consider `CC(C)N(C)S(=O)(=O)NC(=O)c1cc(-n2c(=O)cc(C(F)(F)F)n(C)c2=O)c(F)cc1Cl` [Saflufenacil, saflufenacil], for which the inhibition at 50 g/ha amounted to 0% in [1] (Avena fatua, dose 50 g/ha, soil treatment, 28th day after treatment, read-out: Growth inhibition rate (%) of wild oat, Measured value) and 5% in assay [4] (dose 50 g/ha). The inhibition at 5 g/ha in assay [2] (dose 5 g/ha) worked out at 0%. Further, the inhibition at 10 g/ha in assay [2] (dose 10 g/ha) is 65%. Besides, in [3] (dose 100 g/ha), the inhibition at 100 g/ha amounted to 20%. The inhibition at 25 g/ha in assay [4] came out at 15%.

Regarding `COC(=O)CSc1cc(/N=c2\sc(=O)n3n2CCCC3)c(F)cc1Cl` [Fluthiacet-methyl, fluthiacet-methyl], in assay [5] (Sesbania, dose 5 g/ha, read-out: Growth inhibition rate (%) of rostrate sesbania, Measured value), the inhibition at 5 g/ha was 0%. In addition, the inhibition at 50 g/ha in assay [6] (Crotalaria juncea, dose 50 g/ha, read-out: Growth inhibition rate (%) of sunn-hemp, Measured value) is 0%.

For the compound `C#CCN1C(=O)COc2cc(F)c(N3C(=O)C4=C(CCCC4)C3=O)cc21` [Flumioxazin, flumioxazin], the inhibition at 2.5 g/ha in assay [7] (dose 2.5 g/ha) amounted to 0%. The inhibition at 250 g/ha in [1] (Avena fatua, dose 250 g/ha, soil treatment, 28th day after treatment, read-out: Growth inhibition rate (%) of wild oat, Measured value) stood at 90%; in assay [10] (Sesbania, dose 250 g/ha, read-out: Growth inhibition rate (%) of rostrate sesbania, Measured value), 70%. Further, the inhibition at 500 g/ha in assay [8] (dose 500 g/ha) came to 75%. Further, in assay [9] (dose 5 g/ha, 2.2 to 2.5 leaf-stage, 28th day after treatment), the inhibition at 5 g/ha was 20%. The inhibition at 200 g/ha in assay [5] (Sesbania, dose 200 g/ha, read-out: Growth inhibition rate (%) of rostrate sesbania, Measured value) was determined as 75%. In assay [6] (Crotalaria juncea, dose 100 g/ha, read-out: Growth inhibition rate (%) of sunn-hemp, Measured value), the inhibition at 100 g/ha was found to be 0%.

In the case of `COc1cc(OC)nc(NC(=O)NS(=O)(=O)c2ncccc2C(F)(F)F)n1` [Flazasulfuron, 1-(4,6-dimethoxypyrimidin-2-yl)-3-(3-trifluoromethyl-2-pyridylsulfonyl)urea], the inhibition at 50 g/ha in assay [7] (dose 50 g/ha) turned out to be 85%; in [11] (Solanum nigrum, dose 50 g/ha, 3.2 to 3.5 leaf-stage, 21st day after treatment, read-out: Growth inhibition rate (%) of black nightshade, Measured value), 74%; in assay [13] (Crotalaria juncea, dose 50 g/ha, soil treatment, 28th day after treatment, read-out: Growth inhibition rate (%) of sunn-hemp, Measured value), 55%; in assay [14] (Echinochloa esculenta, dose 50 g/ha, soil treatment, 14th day after treatment, read-out: Growth inhibition rate (%) of japanese millet, Measured value) it was 80%; in [9] (setting [20]), 75%; in [2] (dose 50 g/ha) it was 88%. In addition, the inhibition at 50 g/ha in assay [5] (Sesbania, dose 50 g/ha, read-out: Growth inhibition rate (%) of rostrate sesbania, Measured value) is 50%; in assay [15] (dose 50 g/ha), 60%; in assay [4] (dose 50 g/ha), 70%. In addition, the inhibition at 12.5 g/ha in assay [1] (Avena fatua, dose 12.5 g/ha, soil treatment, 28th day after treatment, read-out: Growth inhibition rate (%) of wild oat, Measured value) was determined as 20%; in the assay with corn (Zea mays L.) (dose 12.5 g/ha) it was 70%; in assay [10] (Sesbania, dose 12.5 g/ha, read-out: Growth inhibition rate (%) of rostrate sesbania, Measured value), 25%; in assay [3] (dose 12.5 g/ha), 0%; in [19] (dose 12.5 g/ha, 3.8 to 4.3 leaf-stage, 28th day after treatment) it was 15%. Besides, the inhibition at 25 g/ha came out at 75% in [1] (Avena fatua, dose 25 g/ha, soil treatment, 28th day after treatment, read-out: Growth inhibition rate (%) of wild oat, Measured value); 30% in [8] (dose 25 g/ha); 10% in assay [12] (dose 25 g/ha, 7 to 8 leaf-stage, 21st day after treatment); 0% in assay [6] (Crotalaria juncea, dose 25 g/ha, read-out: Growth inhibition rate (%) of sunn-hemp, Measured value); 0% in [18] (dose 25 g/ha, 4.0 to 4.3 leaf-stage, 28th day after treatment); 40% in [4]. For the same compound, the “dose required to completely suppress growth of black nightshade” value in assay [11] (flazasulfuron alone) was at least 50 g/ha. Also, the inhibition at 100 g/ha in assay [9] (dose 100 g/ha, 2.2 to 2.5 leaf-stage, 28th day after treatment) was determined as 75%; in assay [2] (dose 100 g/ha), 88%. In addition, the inhibition at 6.3 g/ha in assay [16] (dose 6.3 g/ha, 3.3 to 4.0 leaf-stage, 21st day after treatment) worked out at 92%. Moreover, the inhibition at 1.6 g/ha in assay [17] was 3%.

Turning to `CCOC(=O)COc1cc(-n2ncc(C(F)(F)F)c(C)c2=O)c(F)cc1Cl` [Flufenpyr-ethyl, flufenpyr-ethyl], the “Growth inhibition rate (%) of rostrate sesbania, Measured value” in assay [5] (dose 5 g/ha) stood at 0%. The “Growth inhibition rate (%) of sunn-hemp, Measured value” in [6] (dose 50 g/ha) was 0%.

For `CCOC(=O)C(Cl)Cc1cc(-n2nc(C)n(C(F)F)c2=O)c(F)cc1Cl` (stereo not drawn) [Carfentrazone-ethyl, carfentrazone-ethyl], in assay [9], the inhibition at 20 g/ha came out at 0% and the inhibition at 50 g/ha was 0%. The inhibition at 27.4 g/ha in assay [17] is 92%. Besides, the inhibition at 25 g/ha in assay [18] is 65%.

Regarding `C=CCOC(=O)C(C)(C)OC(=O)c1cc(-n2c(=O)cc(C(F)(F)F)n(C)c2=O)ccc1Cl` [Butafenacil, butafenacil], the inhibition at 100 g/ha in the assay on corn (Zea mays L.) (dose 100 g/ha) stood at 20%. Also, the inhibition at 10 g/ha in [15] (dose 10 g/ha) turned out to be 0%.

Turning to `C#CCN(C)c1c(C#N)cnn1-c1nn2c(c1Cl)CCCC2` [Pyraclonil, pyraclonil], in assay [1] (dose 250 g/ha, soil treatment, 28th day after treatment), the “Growth inhibition rate (%) of wild oat, Measured value” amounted to 40%. The “Growth inhibition rate (%) of japanese millet, Measured value” in assay [14] (dose 100 g/ha, soil treatment, 14th day after treatment) came to 30%.

As to oxadiargyl, the “Growth inhibition rate (%) of sunn-hemp, Measured value” in assay [13] (dose 400 g/ha, soil treatment, 28th day after treatment) is listed as 40%. Further, the “Growth inhibition rate (%) of rostrate sesbania, Measured value” in [10] (dose 400 g/ha) is 20%. Also, the results for the “Growth inhibition rate (%) of wild oat, Measured value” in assay [4] (dose 50 g/ha) and in [4] (dose 800 g/ha) were 5% and 20%, respectively.

On to `Cc1nn(-c2cc(NS(C)(=O)=O)c(Cl)cc2Cl)c(=O)n1C(F)F` [Sulfentrazone, sulfentrazone], for which, in assay [9] (setting [20]), the inhibition at 50 g/ha came out at 30%. Besides, in [2] (dose 25 g/ha), the inhibition at 25 g/ha is 20%. In addition, the inhibition at 500 g/ha in assay [6] (Crotalaria juncea, dose 500 g/ha, read-out: Growth inhibition rate (%) of sunn-hemp, Measured value) stood at 30%.

As for `CC(C)=C1OC(=O)N(c2cc(OC3CCCC3)c(Cl)cc2F)C1=O` [Pentoxazone, pentoxazone], the inhibition at 250 g/ha in assay [1] (Avena fatua, soil, read-out: Growth inhibition rate (%) of wild oat, Measured value) is 0%. The inhibition at 100 g/ha in assay [14] (Echinochloa esculenta, soil, read-out: Growth inhibition rate (%) of japanese millet, Measured value) amounted to 0%.

With `CCOC(=O)COc1cc(-c2nn(C)c(OC(F)F)c2Cl)c(F)cc1Cl` [Pyraflufen-ethyl, pyraflufen-ethyl], the inhibition at 2.5 g/ha in assay [11] (Solanum nigrum, read-out: Growth inhibition rate (%) of black nightshade, Measured value) was determined as 88%. For the same compound, the inhibition at 10 g/ha in assay [12] came out at 43%; in [13] (setting [21]) it was 20%; in assay [16] it was 58%. Also, the inhibition at 50 g/ha in assay [13] (setting [21]) worked out at 45%. In assay [18], the inhibition at 80 g/ha was 80%. Besides, the inhibition at 40 g/ha in [19] came out at 0%.

Source of the values: patent US9743666B2, “Herbicidal composition comprising flazasulfuron and an inhibitor of protoporphyrinogen oxidase” (ISHIHARA SANGYO KAISHA, LTD., priority 2011, dated 2017).
